Assay [1] has as its target Cholinesterase (Homo sapiens, UniProt P06276). As to the kind of experiment: Inhibition of BChE (unknown origin).
Assay [2] deals with Acetylcholinesterase (Homo sapiens, UniProt P22303). Description: Inhibition of AChE (unknown origin).

Our source for the IC50 values is ChEMBL document CHEMBL4602614, “Design, synthesis and cholinesterase inhibitory activity of novel spiropyrrolidine tethered imidazole heterocyclic hybrids” (Bioorg Med Chem Lett, 2020).

Molecules are shown by their SMILES. pIC50: −log10 of the molar value.

Acetylcholinesterase, sequence (P22303 whole entry): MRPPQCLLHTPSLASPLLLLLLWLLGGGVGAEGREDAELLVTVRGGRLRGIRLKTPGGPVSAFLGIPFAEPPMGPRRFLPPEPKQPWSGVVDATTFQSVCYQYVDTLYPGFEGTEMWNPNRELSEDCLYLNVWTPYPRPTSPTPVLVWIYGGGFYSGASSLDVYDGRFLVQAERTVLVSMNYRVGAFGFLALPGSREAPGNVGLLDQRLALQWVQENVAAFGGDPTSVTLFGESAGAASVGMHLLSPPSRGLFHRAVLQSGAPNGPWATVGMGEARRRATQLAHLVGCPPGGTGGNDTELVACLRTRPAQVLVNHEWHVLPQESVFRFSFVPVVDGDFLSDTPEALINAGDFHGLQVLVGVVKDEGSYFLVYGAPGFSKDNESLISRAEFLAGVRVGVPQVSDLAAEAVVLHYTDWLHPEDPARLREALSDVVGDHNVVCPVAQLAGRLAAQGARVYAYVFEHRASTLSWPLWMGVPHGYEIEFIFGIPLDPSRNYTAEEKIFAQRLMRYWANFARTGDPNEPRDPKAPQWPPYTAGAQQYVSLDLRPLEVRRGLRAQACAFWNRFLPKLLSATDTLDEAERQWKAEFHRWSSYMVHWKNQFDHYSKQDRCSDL
Cholinesterase, sequence (P06276 whole entry): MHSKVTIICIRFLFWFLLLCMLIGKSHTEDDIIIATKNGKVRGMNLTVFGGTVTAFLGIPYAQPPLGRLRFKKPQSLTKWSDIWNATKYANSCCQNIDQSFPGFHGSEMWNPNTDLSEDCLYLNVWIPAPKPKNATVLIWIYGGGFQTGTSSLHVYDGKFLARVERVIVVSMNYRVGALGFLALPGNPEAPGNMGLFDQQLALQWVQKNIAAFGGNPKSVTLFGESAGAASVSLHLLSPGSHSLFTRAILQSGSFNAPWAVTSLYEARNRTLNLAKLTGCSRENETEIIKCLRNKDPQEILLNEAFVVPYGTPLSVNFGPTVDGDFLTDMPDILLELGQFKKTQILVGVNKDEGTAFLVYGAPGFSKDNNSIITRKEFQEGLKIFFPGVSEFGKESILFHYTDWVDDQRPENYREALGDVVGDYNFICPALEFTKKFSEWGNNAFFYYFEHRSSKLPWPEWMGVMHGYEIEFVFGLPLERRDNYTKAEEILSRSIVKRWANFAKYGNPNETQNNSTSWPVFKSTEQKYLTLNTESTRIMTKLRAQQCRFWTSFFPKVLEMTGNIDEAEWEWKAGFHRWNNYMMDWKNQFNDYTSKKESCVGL

The pIC50 is the negative decadic logarithm of the IC50, by convention in mol/L. Low readings indicate a large IC50, high ones a small IC50. For `Cc1cccc(C2C([N+](=O)[O-])C(Cc3c[nH]cn3)NC23c2ccccc2-c2nc4ccccc4nc23)c1` (configuration not stated), the figures for the pIC50 in assay [1] and in assay [2] were 4.87 and 5.11, respectively.

As for `Cc1ccc(C2C([N+](=O)[O-])C(Cc3c[nH]cn3)NC23c2ccccc2-c2nc4ccccc4nc23)cc1` (configuration not stated), the pIC50 in assay [1] was 4.91; in assay [2] it was 5.69.

Consider `COc1ccccc1C1C([N+](=O)[O-])C(Cc2c[nH]cn2)NC12c1ccccc1-c1nc3ccccc3nc12` (configuration not stated), for which the results for the pIC50 in assay [1] and in assay [2] were 4.85 and 5.28, respectively.

For `O=[N+]([O-])C1C(Cc2c[nH]cn2)NC2(c3ccccc3-c3nc4ccccc4nc32)C1c1ccccc1` (configuration not stated), the figures for the negative-log IC50 (pIC50) in assay [1] and in assay [2] were 4.81 and 4.93, respectively.

As for `O=[N+]([O-])C1C(Cc2c[nH]cn2)NC2(c3ccccc3-c3nc4ccccc4nc32)C1c1ccco1` (configuration not stated), the pIC50 in assay [1] was 4.65; in assay [2] it was 4.85.

As to `COc1cccc(C2C([N+](=O)[O-])C(Cc3c[nH]cn3)NC23c2ccccc2-c2nc4ccccc4nc23)c1` (configuration not stated), the pIC50 in assay [1] is 4.83; in assay [2], 5.04.

Consider `O=[N+]([O-])C1C(Cc2c[nH]cn2)NC2(c3ccccc3-c3nc4ccccc4nc32)C1c1ccc(Br)cc1` (configuration not stated), for which the results for the pIC50 in assay [1] and in assay [2] were 4.58 and 4.79, respectively.

`O=[N+]([O-])C1C(Cc2c[nH]cn2)NC2(c3ccccc3-c3nc4ccccc4nc32)C1c1ccccn1` (configuration not stated): the pIC50 in assay [1] is 4.62; in assay [2], 4.77.

With `Cc1ccccc1C1C([N+](=O)[O-])C(Cc2c[nH]cn2)NC12c1ccccc1-c1nc3ccccc3nc12` (configuration not stated), the figures for the pIC50 in assay [1] and in assay [2] were 4.86 and 5.00, respectively.

On to `O=[N+]([O-])C1C(Cc2c[nH]cn2)NC2(c3ccccc3-c3nc4ccccc4nc32)C1c1ccc(Cl)cc1` (configuration not stated), for which the results for the pIC50 in assay [1] and in assay [2] were 4.67 and 4.74, respectively.

For the compound `COc1ccc(C2C([N+](=O)[O-])C(Cc3c[nH]cn3)NC23c2ccccc2-c2nc4ccccc4nc23)cc1` (configuration not stated), the results for the pIC50 in assay [1] and in assay [2] were 4.94 and 5.69, respectively.
